Reference: patent US9056843B2, “Trifluoromethyl-oxadiazole derivatives and their use in the treatment of disease” (NOVARTIS AG, priority 2011, dated 2015)

Assays:
Assay type in all cases: biochemical
[1] = target: Human recombinant HDAC4 (Homo sapiens (Human), UniProt P56524); assay: Test 2: HDAC4 assay (fluorogenic substrate, 5 μM acetyl-Gly-Ala-Lys(ε-trifluoroacetyl)-AMC); settings: Test 2 (values without asterisk)
How it was run: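 After the reaction, bovine trypsin (300 nM solution) was added for 15 min at RT to develop the signal; fluorescence read at 360/450 nm. No-enzyme background subtracted; IC50 from 4-parameter logistic fit of dose-response curves.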

[2] = target: Human recombinant full length HDAC6 (Homo sapiens (Human), UniProt Q9UBN7); assay: Test 4: HDAC6 assay; settings: Test 4; substrate 5 μM acetyl-Gly-Ala-Lys(acetyl)-AMC
How it was run: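 Baculovirus-expressed full-length recombinant human HDAC6 with 5 μM acetyl-Gly-Ala-Lys(acetyl)-AMC substrate, developed with trypsin 15 min at room temperature.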

[3] = target: Human recombinant full length HDAC1 (Homo sapiens (Human), UniProt Q13547); assay: Test 3: HDAC1 assay; settings: substrate 5 μM acetyl-Gly-Ala-Lys(acetyl)-AMC
How it was run: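 Baculovirus-expressed full-length human HDAC1 with 5 μM acetyl-Gly-Ala-Lys(acetyl)-AMC substrate, developed with trypsin 15 min at room temperature.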

Human recombinant full length HDAC1, sequence (Q13547 whole entry): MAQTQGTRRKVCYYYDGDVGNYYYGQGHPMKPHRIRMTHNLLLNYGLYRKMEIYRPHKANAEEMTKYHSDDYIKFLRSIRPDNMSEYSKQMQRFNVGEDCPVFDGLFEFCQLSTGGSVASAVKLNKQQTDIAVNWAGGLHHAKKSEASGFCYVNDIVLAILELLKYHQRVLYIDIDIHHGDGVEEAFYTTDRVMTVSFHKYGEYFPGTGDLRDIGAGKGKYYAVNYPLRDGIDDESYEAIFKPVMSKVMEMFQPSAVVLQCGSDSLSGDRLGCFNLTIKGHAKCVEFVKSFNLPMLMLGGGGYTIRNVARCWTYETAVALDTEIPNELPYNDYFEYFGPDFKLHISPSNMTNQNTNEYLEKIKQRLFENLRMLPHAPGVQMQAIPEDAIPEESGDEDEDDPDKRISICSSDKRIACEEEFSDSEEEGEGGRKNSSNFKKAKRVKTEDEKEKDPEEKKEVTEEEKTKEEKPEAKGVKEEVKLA
Human recombinant full length HDAC6, sequence (Q9UBN7 whole entry): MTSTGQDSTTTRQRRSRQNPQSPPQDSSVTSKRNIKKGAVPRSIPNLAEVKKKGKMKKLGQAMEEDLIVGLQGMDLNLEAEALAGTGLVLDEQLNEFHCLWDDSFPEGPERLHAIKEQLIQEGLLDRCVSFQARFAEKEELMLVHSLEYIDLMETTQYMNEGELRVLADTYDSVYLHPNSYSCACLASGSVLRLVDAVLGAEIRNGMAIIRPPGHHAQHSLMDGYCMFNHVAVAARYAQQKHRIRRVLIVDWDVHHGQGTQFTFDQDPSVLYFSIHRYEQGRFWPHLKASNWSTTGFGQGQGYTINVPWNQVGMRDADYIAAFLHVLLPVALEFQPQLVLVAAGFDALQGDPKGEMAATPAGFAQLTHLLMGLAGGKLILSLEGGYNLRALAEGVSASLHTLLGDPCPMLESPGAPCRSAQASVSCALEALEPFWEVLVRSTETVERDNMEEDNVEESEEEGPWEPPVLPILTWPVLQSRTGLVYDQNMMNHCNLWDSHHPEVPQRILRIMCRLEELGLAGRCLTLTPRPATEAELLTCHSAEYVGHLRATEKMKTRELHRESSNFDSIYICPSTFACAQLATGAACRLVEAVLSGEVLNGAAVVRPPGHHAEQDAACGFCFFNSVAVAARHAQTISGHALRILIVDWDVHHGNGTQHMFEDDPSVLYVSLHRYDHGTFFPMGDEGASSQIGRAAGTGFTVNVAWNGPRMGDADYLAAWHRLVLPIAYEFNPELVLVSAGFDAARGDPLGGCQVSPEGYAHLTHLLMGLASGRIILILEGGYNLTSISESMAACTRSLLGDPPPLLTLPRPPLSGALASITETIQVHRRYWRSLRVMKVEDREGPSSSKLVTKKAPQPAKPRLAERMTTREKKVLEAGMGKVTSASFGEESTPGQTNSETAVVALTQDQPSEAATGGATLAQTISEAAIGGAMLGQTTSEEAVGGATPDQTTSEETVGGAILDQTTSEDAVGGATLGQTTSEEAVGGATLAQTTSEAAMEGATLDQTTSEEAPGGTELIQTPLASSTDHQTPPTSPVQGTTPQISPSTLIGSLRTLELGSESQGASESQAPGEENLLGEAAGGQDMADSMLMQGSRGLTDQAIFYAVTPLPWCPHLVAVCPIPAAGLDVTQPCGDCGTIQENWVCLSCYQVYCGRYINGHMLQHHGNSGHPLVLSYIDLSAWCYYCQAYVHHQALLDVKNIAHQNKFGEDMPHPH
Human recombinant HDAC4, sequence (P56524 2-1084): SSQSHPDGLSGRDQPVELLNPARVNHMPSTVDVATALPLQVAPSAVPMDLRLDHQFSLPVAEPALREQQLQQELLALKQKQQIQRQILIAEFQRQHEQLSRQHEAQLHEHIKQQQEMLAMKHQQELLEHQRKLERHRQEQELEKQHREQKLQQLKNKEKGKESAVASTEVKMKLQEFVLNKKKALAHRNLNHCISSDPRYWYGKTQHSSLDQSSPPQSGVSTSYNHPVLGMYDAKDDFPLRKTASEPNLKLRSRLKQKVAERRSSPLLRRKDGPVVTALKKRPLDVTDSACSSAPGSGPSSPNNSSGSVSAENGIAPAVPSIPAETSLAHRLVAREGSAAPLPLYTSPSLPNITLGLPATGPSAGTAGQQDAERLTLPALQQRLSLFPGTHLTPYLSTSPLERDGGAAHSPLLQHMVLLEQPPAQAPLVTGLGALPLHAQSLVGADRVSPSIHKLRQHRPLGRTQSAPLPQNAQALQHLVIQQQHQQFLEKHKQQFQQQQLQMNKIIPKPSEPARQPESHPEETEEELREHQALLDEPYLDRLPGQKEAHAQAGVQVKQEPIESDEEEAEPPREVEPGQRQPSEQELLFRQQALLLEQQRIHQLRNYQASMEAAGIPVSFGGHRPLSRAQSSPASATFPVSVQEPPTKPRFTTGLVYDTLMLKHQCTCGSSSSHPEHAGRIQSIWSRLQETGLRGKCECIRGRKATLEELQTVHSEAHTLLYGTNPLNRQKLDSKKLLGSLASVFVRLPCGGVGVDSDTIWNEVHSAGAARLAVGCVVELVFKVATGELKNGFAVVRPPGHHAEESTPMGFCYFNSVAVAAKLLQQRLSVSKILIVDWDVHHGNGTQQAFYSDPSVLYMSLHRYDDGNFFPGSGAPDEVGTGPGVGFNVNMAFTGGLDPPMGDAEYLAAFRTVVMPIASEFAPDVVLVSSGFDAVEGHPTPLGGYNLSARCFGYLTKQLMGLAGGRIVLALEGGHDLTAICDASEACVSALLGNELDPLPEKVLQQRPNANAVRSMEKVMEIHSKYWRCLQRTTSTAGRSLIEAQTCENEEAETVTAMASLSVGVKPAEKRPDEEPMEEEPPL

SMILES	IC50 [1]	IC50 [2]	IC50 [3]
CC(CNC(=O)c1ccc(-c2noc(C(F)(F)F)n2)cc1F)N(C)C (stereo not drawn) [Example 122, N-(2-(dimethylamino)propyl)-2-fluoro-4-(5-(trifluoromethyl)-1,2,4-oxadiazol-3-yl)benzamide]	85 nM	2400 nM	9000 nM
CCN(CC)C[C@@H](C)NC(=O)c1ccc(-c2noc(C(F)(F)F)n2)cc1F [Example 126, (R)—N-(1-(diethylamino)propan-2-yl)-2-fluoro-4-(5-(trifluoromethyl)-1,2,4-oxadiazol-3-yl)benzamide]	8.9 nM	3900 nM	> 10000 nM
CCN(CC)C[C@H](C)NC(=O)c1ccc(-c2noc(C(F)(F)F)n2)cc1F [Example 127, (S)—N-(1-(diethylamino)propan-2-yl)-2-fluoro-4-(5-(trifluoromethyl)-1,2,4-oxadiazol-3-yl)benzamide]	44 nM	> 10000 nM	> 10000 nM
C[C@H](CN1CCCC1)NC(=O)c1ccc(-c2noc(C(F)(F)F)n2)cc1F [Example 128, (R)-2-fluoro-N-(1-(pyrrolidin-1-yl)propan-2-yl)-4-(5-(trifluoromethyl)-1,2,4-oxadiazol-3-yl)benzamide]	26 nM	4500 nM	> 10000 nM
C[C@H](CN1CCCCC1)NC(=O)c1ccc(-c2noc(C(F)(F)F)n2)cc1F [Example 129, (R)-2-fluoro-N-(1-(piperidin-1-yl)propan-2-yl)-4-(5-(trifluoromethyl)-1,2,4-oxadiazol-3-yl)benzamide]	13 nM	3000 nM	9050 nM
C[C@H](CN1CCCC1)NC(=O)c1ccc(-c2noc(C(F)(F)F)n2)cc1 [Example 130, (R)—N-(1-(pyrrolidin-1-yl)propan-2-yl)-4-(5-(trifluoromethyl)-1,2,4-oxadiazol-3-yl)benzamide]	11 nM	9100 nM	> 10000 nM
C[C@H](CN1CCCCC1)NC(=O)c1ccc(-c2noc(C(F)(F)F)n2)cc1 [Example 131, (R)—N-(1-(piperidin-1-yl)propan-2-yl)-4-(5-(trifluoromethyl)-1,2,4-oxadiazol-3-yl)benzamide]	10 nM	7500 nM	6550 nM
CCN(CC)C[C@@H](C)NC(=O)c1ccc(-c2noc(C(F)(F)F)n2)cc1 [Example 132, (R)—N-(1-(diethylamino)propan-2-yl)-4-(5-(trifluoromethyl)-1,2,4-oxadiazol-3-yl)benzamide]	5 nM	8300 nM	9200 nM
CCN(CC)C[C@H](NC(=O)c1ccc(-c2noc(C(F)(F)F)n2)cc1F)C(C)C [Example 135, (R)—N-(1-(diethylamino)-3-methylbutan-2-yl)-2-fluoro-4-(5-(trifluoromethyl)-1,2,4-oxadiazol-3-yl)benzamide]	10 nM	> 10000 nM	> 10000 nM
CCN(C)C[C@@H](C)NC(=O)c1ccc(-c2noc(C(F)(F)F)n2)cc1 [Example 136, (R)—N-(1-(ethyl(methyl)amino)propan-2-yl)-4-(5-(trifluoromethyl)-1,2,4-oxadiazol-3-yl)benzamide]	8.9 nM	> 10000 nM	> 10000 nM
CC(C)N(C)C[C@@H](C)NC(=O)c1ccc(-c2noc(C(F)(F)F)n2)cc1 [Example 138, (R)—N-(1-(isopropyl(methyl)amino)propan-2-yl)-4-(5-(trifluoromethyl)-1,2,4-oxadiazol-3-yl)benzamide]	4.5 nM	> 10000 nM	> 10000 nM
CCCN(C)C[C@@H](C)NC(=O)c1ccc(-c2noc(C(F)(F)F)n2)cc1 [Example 139, (R)—N-(1-(methyl(propyl)amino)propan-2-yl)-4-(5-(trifluoromethyl)-1,2,4-oxadiazol-3-yl)benzamide]	1 nM	9600 nM	4000 nM
CCCN(CCC)C[C@@H](C)NC(=O)c1ccc(-c2noc(C(F)(F)F)n2)cc1F [Example 141, (R)—N-(1-(dipropylamino)propan-2-yl)-2-fluoro-4-(5-(trifluoromethyl)-1,2,4-oxadiazol-3-yl)benzamide]	1.4 nM	1400 nM	4200 nM
CC(C)N(C)C[C@@H](C)NC(=O)c1ccc(-c2noc(C(F)(F)F)n2)cc1F [Example 142, (R)-2-fluoro-N-(1-(isopropyl(methyl)amino)propan-2-yl)-4-(5-(trifluoromethyl)-1,2,4-oxadiazol-3-yl)benzamide]	7.2 nM	5400 nM	> 10000 nM
CCCN(C)C[C@@H](C)NC(=O)c1ccc(-c2noc(C(F)(F)F)n2)cc1F [Example 143, (R)-2-fluoro-N-(1-(methyl(propyl)amino)propan-2-yl)-4-(5-(trifluoromethyl)-1,2,4-oxadiazol-3-yl)benzamide]	1.2 nM	3300 nM	5800 nM
CC(CN(C)C)N(C)C(=O)c1ccc(-c2noc(C(F)(F)F)n2)cc1F (stereo not drawn) [Example 144, N-(1-(dimethylamino)propan-2-yl)-2-fluoro-N-methyl-4-(5-(trifluoromethyl)-1,2,4-oxadiazol-3-yl)benzamide]	180 nM	> 10000 nM	> 10000 nM
CCCN(CC)C[C@@H](C)NC(=O)c1ccc(-c2noc(C(F)(F)F)n2)cc1 [Example 145, (R)—N-(1-(ethyl(propyl)amino)propan-2-yl)-4-(5-(trifluoromethyl)-1,2,4-oxadiazol-3-yl)benzamide]	0.75 nM	3700 nM	2400 nM
CCCN(CC)C[C@@H](C)NC(=O)c1ccc(-c2noc(C(F)(F)F)n2)cc1F [Example 146, (R)—N-(1-(ethyl(propyl)amino)propan-2-yl)-2-fluoro-4-(5-(trifluoromethyl)-1,2,4-oxadiazol-3-yl)benzamide]	1.6 nM	2400 nM	5100 nM
C[C@H](CN1CCOCC1)NC(=O)c1ccc(-c2noc(C(F)(F)F)n2)cc1 [Example 147, (R)—N-(1-morpholinopropan-2-yl)-4-(5-(trifluoromethyl)-1,2,4-oxadiazol-3-yl)benzamide]	300 nM	6700 nM	> 10000 nM
C[C@H](CN1CCOCC1)NC(=O)c1ccc(-c2noc(C(F)(F)F)n2)cc1F [Example 148, (R)-2-fluoro-N-(1-morpholinopropan-2-yl)-4-(5-(trifluoromethyl)-1,2,4-oxadiazol-3-yl)benzamide]	380 nM	3200 nM	> 10000 nM
CCCCN(C)C[C@@H](C)NC(=O)c1ccc(-c2noc(C(F)(F)F)n2)cc1 [Example 150, (R)—N-(1-(butyl(methyl)amino)propan-2-yl)-4-(5-(trifluoromethyl)-1,2,4-oxadiazol-3-yl)benzamide]	1.1 nM	3100 nM	1200 nM
CCCCN(C)C[C@@H](C)NC(=O)c1ccc(-c2noc(C(F)(F)F)n2)cc1F [Example 151, (R)—N-(1-(butyl(methyl)amino)propan-2-yl)-2-fluoro-4-(5-(trifluoromethyl)-1,2,4-oxadiazol-3-yl)benzamide]	1.8 nM	2600 nM	2700 nM
CCN(C[C@@H](C)NC(=O)c1ccc(-c2noc(C(F)(F)F)n2)cc1F)C(C)C [Example 152, (R)—N-(1-(ethyl(isopropyl)amino)propan-2-yl)-2-fluoro-4-(5-(trifluoromethyl)-1,2,4-oxadiazol-3-yl)benzamide]	8.4 nM	2400 nM	> 10000 nM
CN1CC[C@@H](NC(=O)c2ccc(-c3noc(C(F)(F)F)n3)cc2)C1 [Example 153, (R)—N-(1-methylpyrrolidin-3-yl)-4-(5-(trifluoromethyl)-1,2,4-oxadiazol-3-yl)benzamide]	3.6 nM	3000 nM	1800 nM
CN1CCC[C@@H](NC(=O)c2ccc(-c3noc(C(F)(F)F)n3)cc2)C1 [Example 154, (R)—N-(1-methylpiperidin-3-yl)-4-(5-(trifluoromethyl)-1,2,4-oxadiazol-3-yl)benzamide]	110 nM	7200 nM	> 10000 nM
CCN(CC)CCNC(=O)c1ccc(-c2noc(C(F)(F)F)n2)cc1 [Example 155, N-(2-(diethylamino)ethyl)-4-(5-(trifluoromethyl)-1,2,4-oxadiazol-3-yl)benzamide]	12 nM	2600 nM	2900 nM
C[C@H](CN(C)Cc1ccccc1)NC(=O)c1ccc(-c2noc(C(F)(F)F)n2)cc1 [Example 156, (R)—N-(1-(benzyl(methyl)amino)propan-2-yl)-4-(5-(trifluoromethyl)-1,2,4-oxadiazol-3-yl)benzamide]	0.85 nM	2300 nM	2900 nM
CNCCNC(=O)c1ccc(-c2noc(C(F)(F)F)n2)cc1 [Example 157, N-(2-(methylamino)ethyl)-4-(5-(trifluoromethyl)-1,2,4-oxadiazol-3-yl)benzamide]	40 nM	3400 nM	6100 nM
O=C(NCCNc1ccccc1)c1ccc(-c2noc(C(F)(F)F)n2)cc1 [Example 158, N-(2-(phenylamino)ethyl)-4-(5-(trifluoromethyl)-1,2,4-oxadiazol-3-yl)benzamide]	360 nM	1800 nM	8800 nM
